# Source: patent US20030083469A1, “Allosteric control of nuclear hormone receptors” (The Salk Institute for Biological Studies, priority 1995, published 2003)
# Key:
# [1] = target: T1, T3R-RXR heterodimers (Homo sapiens, UniProt P10828+P19793); assay: Transient transfection analysis of T3R-RXR heterodimers (TK-LUC reporter, CV-1 cells); type: cell-based
# T1 construct: transient transfection analysis of full-length Nurrl and/or RXR; expressed in transfected cells; host or cells: CV-1
# T1 sequence (P10828 1-461): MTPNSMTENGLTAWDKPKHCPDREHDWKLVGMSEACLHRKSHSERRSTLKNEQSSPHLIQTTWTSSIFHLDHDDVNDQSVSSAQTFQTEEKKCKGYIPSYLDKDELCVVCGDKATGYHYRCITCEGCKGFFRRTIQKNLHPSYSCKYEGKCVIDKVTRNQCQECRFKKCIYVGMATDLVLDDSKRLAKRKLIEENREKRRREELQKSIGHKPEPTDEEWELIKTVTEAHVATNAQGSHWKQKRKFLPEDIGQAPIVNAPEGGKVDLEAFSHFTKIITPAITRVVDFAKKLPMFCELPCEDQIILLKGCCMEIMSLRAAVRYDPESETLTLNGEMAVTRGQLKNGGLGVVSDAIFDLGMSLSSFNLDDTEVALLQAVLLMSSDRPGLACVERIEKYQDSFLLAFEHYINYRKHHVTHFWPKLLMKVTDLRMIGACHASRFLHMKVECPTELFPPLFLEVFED
# T1 sequence (P19793 1-462): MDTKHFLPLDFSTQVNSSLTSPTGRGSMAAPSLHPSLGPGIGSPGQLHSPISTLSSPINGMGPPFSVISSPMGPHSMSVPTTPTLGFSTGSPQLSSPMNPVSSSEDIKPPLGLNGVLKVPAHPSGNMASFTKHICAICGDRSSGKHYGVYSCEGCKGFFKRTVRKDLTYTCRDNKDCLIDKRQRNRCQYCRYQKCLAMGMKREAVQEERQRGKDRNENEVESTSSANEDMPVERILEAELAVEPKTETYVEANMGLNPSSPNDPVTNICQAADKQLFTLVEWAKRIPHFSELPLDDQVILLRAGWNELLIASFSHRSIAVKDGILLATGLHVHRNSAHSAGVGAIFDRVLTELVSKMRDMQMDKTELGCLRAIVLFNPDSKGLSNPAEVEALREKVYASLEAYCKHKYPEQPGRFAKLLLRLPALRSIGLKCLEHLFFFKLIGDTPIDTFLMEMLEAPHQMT
# Method: One day prior to transfection, cells were plated to 50-80% confluence using phenol-red free DMEM-FBS. Cells were transfected by lipofection using N-{2-(2,3)-dioleoyloxy)propyl-N,N,N-trimethyl ammonium methyl sulfate} according to the manufacturer's instructions (DOTAP, Boehringer Mannheim).
# Since T3R and RAR function as heterodimers with RXR, RXR responsiveness was examined in the context of RXR-T3R and RXR-RAR heterodimers. Attention is directed to FIG. 2, wherein transient transfection analysis of T^3R-RXR and RAR-RXR heterodimers is described. Reporter constructs employed contain the HRE indicated in the figure, cloned upstream of the TK-LUC reporter. In the left panel of the figure, CV-1 cells were transfected with the following plasmids: HRE×2 - TK-LUC (300 ng/10^5 cells), CMX-hT3Rβ (20 ng/10^5 cells), CMX-hRXRα (20 ng/10^5 cells) and the internal control CMX-βgal (500 ng/10^5 cells) .
# [2] = target: T2, GAL-RXR (Homo sapiens, UniProt P19793); assay: Transient transfection analysis of GAL-RXR LBD alone (UASG x4 TK-LUC, CV-1 cells); type: cell-based; conditions: 100 nM LG69
# T2 construct: human RXRα LBD (Glu 203 - Thr 462); expressed in transfected cells; host or cells: CV-1
# T2 sequence (P19793 203-462): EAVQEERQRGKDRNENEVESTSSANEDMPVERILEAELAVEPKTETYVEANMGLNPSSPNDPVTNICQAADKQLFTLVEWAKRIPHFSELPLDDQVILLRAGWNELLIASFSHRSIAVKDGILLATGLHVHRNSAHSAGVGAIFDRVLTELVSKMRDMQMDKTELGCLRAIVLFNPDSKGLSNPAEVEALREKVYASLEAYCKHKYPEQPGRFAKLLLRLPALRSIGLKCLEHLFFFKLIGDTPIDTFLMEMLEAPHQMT
# Method: CV-1 cells were grown in Dulbecco's Modified Eagle's medium supplemented with 10% resin-charcoal stripped (Samuels et al., Endocrinology 105:80-85 (1979)) fetal bovine serum, 50 U/ml penicillin G and 50 μg/ml streptomycin sulfate (DMEM-FBS) at 37° C. in 5% CO2. One day prior to transfection, cells were plated to 50-80% confluence using phenol-red free DMEM-FBS. Cells were transfected by lipofection using N-{2-(2,3)-dioleoyloxy)propyl-N,N,N-trimethyl ammonium methyl sulfate} according to the manufacturer's instructions (DOTAP, Boehringer Mannheim). […]. All points were performed in triplicate in each experiment and varied by less than 10%. Each experiment was repeated three or more times with similar results.
# Thus, a chimeric protein was constructed containing the yeast GAL4 DBD linked to the RXR LBD (GAL-RXR). The ability of this RXR-chimera to respond to LG69 was initially examined in the presence of truncated receptors containing the LBDs of T3R or RAR. Thus, transient transfection analysis of GAL-RXR LBD was carried out in the presence of T3R, RAR or VDR LBDs. Reporter constructs contained 4 copies of the UASG cloned upstream of the TK-LUC reporter. […] Normalized luciferase activity was determined and plotted as reporter activity (see FIG. 3).
# […]. Normalized luciferase activity was determined and plotted as fold-activation relative to untreated cells.
compound,measurement,setting,value
"CC=C(c1ccc(C(=O)O)cc1)c1cc2c(cc1C)C(C)(C)CCC2(C)C [LG69, 4-{1-(3,5,5,8,8-pentamethyl-5,6,7,8-tetrahydro-2-napthalenyl)-1-propenyl}benzoic acid]",effect of LG69 added to T3 on the response to T3,[1]; 100 nM T3+100 nM LG69 versus T3 alone,somewhat reduced
same,responsiveness of transfected cells to ligand (luciferase fold-activation),"[1]; CV-1 cells transfected with T3Rβ and RXRα, 100 nM T3 or 100 nM LG69",not responsive
same,activation of the UASG reporter by GAL-RXR in response to ligand,[2],activated
same,fold response to LG69,[2]; GAL-RXR alone,69 fold
